Structures are written as SMILES.

The target of this test is T1, human CGRP receptor (Homo sapiens, UniProt O60894+Q16602).
T1 construct: SK-N-MC endogenously expressing the human CGRP receptor; endogenous in cells; host or cells: SK-N-MC human neuroblastoma cells
T1 sequence (Q16602 23-461): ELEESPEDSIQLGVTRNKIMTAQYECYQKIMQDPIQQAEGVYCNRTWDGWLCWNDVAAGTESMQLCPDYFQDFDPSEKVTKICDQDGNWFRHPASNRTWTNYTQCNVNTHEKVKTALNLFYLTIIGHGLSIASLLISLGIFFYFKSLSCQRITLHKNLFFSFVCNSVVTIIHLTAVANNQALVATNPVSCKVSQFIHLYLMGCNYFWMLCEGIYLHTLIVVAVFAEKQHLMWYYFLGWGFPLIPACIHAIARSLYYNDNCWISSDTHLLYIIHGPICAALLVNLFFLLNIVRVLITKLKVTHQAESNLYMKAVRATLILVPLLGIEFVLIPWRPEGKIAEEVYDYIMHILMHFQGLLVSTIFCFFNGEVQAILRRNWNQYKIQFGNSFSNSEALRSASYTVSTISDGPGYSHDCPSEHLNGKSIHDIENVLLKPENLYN
T1 sequence (O60894 27-148): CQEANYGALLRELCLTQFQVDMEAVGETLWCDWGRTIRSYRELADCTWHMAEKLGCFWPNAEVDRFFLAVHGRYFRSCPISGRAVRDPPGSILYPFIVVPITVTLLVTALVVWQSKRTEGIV
As to the kind of experiment: cAMP functional assay (HTRF cAMP dynamic-2) in SK-N-MC cells. The following applies: SK-N-MC cells endogenously expressing human CGRP receptor; challenge with EC80 human CGRP (0.3 nM); functional pKb converted from pIC50 by modified Cheng-Prussoff equation. Format: cell-based. As for the experimental part: Biological Activity cAMP Functional Assay
cAMP production following receptor activation was determined using the Homogeneous Time-Resolved Fluorescence (HTRF) cAMP dynamic-2 assay (Cisbio, France). The human neuroblastoma cell line SK-N-MC endogenously expressing the human CGRP receptor was seeded at a density of 12,500 cells/well in solid walled 96 well half area plates (Costar, Catalog Number 3688, Corning Life Sciences, Germany). After 16 h incubation at 37° C. media was removed and cells were incubated at 37° C. for 30 min in serum free media containing 500 μM IBMX (Tocris, Abingdon, UK, Catalog Number 2845) and increasing concentrations of test antagonist. Following this cells were challenged with an EC80 concentration of human CGRP (0.3 nM) for a further 30 min at 37° C. and then cAMP production was determined as manufacturer's instructions before plates were read on a PheraStar fluorescence plate reader (BMG LabTech, Germany). IC50 values were derived from the inhibition curve. The pIC50 values (where pIC50=−log 10 IC50) were converted to a functional pKb value using a modified Cheng-Prussoff equation where Kd=agonist EC50 and L hot=agonist challenge concentration. The pKb values of certain compounds of the invention are detailed in Table 4.
Regarding `CN1CCOCCOC/C=C/c2cnc3c(c2)[C@]2(Cc4ccc(cc4C2)C(=O)NC(Cc2cc(Cl)c4[nH]ncc4c2)C1=O)C(=O)N3` (mixture of isomers) [Example 3-9, (1R,20E)-10-[(7-chloro-1H-indazol-5-yl)methyl]-12-methyl-15,18-dioxa-9,12,24,26-tetrazapentacyclo[20.5.2.11,4.13,7.025,28]hentriaconta-3,5,7(30),20,22(29),23,25(28)-heptaene-8,11,27-trione], the Kb is 1.26 nM.

For the molecule `Cc1cc(C[C@H]2NC(=O)c3ccc4c(n3)CC3(C4)C(=O)Nc4ncc(cc43)/C=C/COCCOCCN(C)C2=O)cc2cn[nH]c12` (single isomer, unassigned) [Example 8-1], the Kb is 20 nM.

Turning to `Cc1cc(C[C@H]2NC(=O)c3ccc4c(n3)CC3(C4)C(=O)Nc4ncc(cc43)/C=C/COCCOCCN(C)C2=O)cc2cn[nH]c12` (single isomer, unassigned) [Example 8-2], the Kb was 31.6 nM.

In turn, `Cc1cc(C[C@H]2NC(=O)c3cnc4c(c3)C[C@]3(C4)C(=O)Nc4ncc(cc43)/C=C/COCCOCCN(C)C2=O)cc2cn[nH]c12` [Example 1-2, (1R,10R,20E)-12-methyl-10-[(7-methyl-1H-indazol-5-yl)methyl]-15,18-dioxa-5,9,12,24,26-pentazapentacyclo[20.5.2.11,4.13,7.025,28]hentriaconta-3,5,7(30),20,22(29),23,25(28)-heptaene-8,11,27-trione] had a Kb of 200 nM.

`Cc1cc(C[C@@H]2NC(=O)c3cnc4c(c3)C[C@@]3(C4)C(=O)Nc4ncc(cc43)/C=C/COCCOCCN(C)C2=O)cc2cn[nH]c12` [Example 1-3, (1S,10S,20E)-12-methyl-10-[(7-methyl-1H-indazol-5-yl)methyl]-15,18-dioxa-5,9,12,24,26-pentazapentacyclo[20.5.2.11,4.13,7.025,28]hentriaconta-3,5,7(30),20,22(29),23,25(28)-heptaene-8,11,27-trione] had a Kb of 10 nM.

`Cc1cc(C[C@H]2NC(=O)c3cnc4c(c3)C[C@@]3(C4)C(=O)Nc4ncc(cc43)/C=C/COCCOCCOCCN(C)C2=O)cc2cn[nH]c12` [Example 1-4, (1S,10R,23E)-12-methyl-10-[(7-methyl-1H-indazol-5-yl)methyl]-15,18,21-trioxa-5,9,12,27,29-pentazapentacyclo[23.5.2.11,4.13,7.028,31]tetratriaconta-3,5,7(33),23,25(32),26,28(31)-heptaene-8,11,30-trione] showed a Kb of 0.251 nM.

Molecule `Cc1cc(C[C@H]2NC(=O)c3cnc4c(c3)C[C@@]3(C4)C(=O)Nc4ncc(cc43)/C=C/COCCCCN(C)C2=O)cc2cn[nH]c12` [Example 1-7, (1S,10R,19E)-12-methyl-10-[(7-methyl-1H-indazol-5-yl)methyl]-17-oxa-5,9,12,23,25-pentazapentacyclo[19.5.2.11,4.13,7.024,27]triaconta-3,5,7(29),19,21(28),22,24(27)-heptaene-8,11,26-trione] showed a Kb of 0.0631 nM.

In turn, `Cc1cc(C[C@H]2NC(=O)c3cnc4c(c3)C[C@@]3(C4)C(=O)Nc4ncc(cc43)CCCOCCOCCN(C)C2=O)cc2cn[nH]c12` [Example 1-8, (1S,10R)-12-methyl-10-[(7-methyl-1H-indazol-5-yl)methyl]-15,18-dioxa-5,9,12,24,26-pentazapentacyclo[20.5.2.11,4.13,7.025,28]hentriaconta-3,5,7(30),22(29),23,25(28)-hexaene-8,11,27-trione] had a Kb of 1.26 nM.

Molecule `Cc1cc(C[C@H]2NC(=O)c3cc4c(cn3)C[C@]3(C4)C(=O)Nc4ncc(cc43)/C=C/COCCOCCN(C)C2=O)cc2cn[nH]c12` [Example 2-1, (1S,10R,20E)-12-methyl-10-[(7-methyl-1H-indazol-5-yl)methyl]-15,18-dioxa-6,9,12,24,26-pentazapentacyclo[20.5.2.11,4.13,7.025,28]hentriaconta-3,5,7(30),20,22(29),23,25(28)-heptaene-8,11,27-trione] gave a Kb of 2.51 nM.

`Cc1cc(C[C@H]2NC(=O)c3cc4c(cn3)C[C@@]3(C4)C(=O)Nc4ncc(cc43)/C=C/COCCOCCN(C)C2=O)cc2cn[nH]c12` [Example 2-2, (1R,10R,20E)-12-methyl-10-[(7-methyl-1H-indazol-5-yl)methyl]-15,18-dioxa-6,9,12,24,26-pentazapentacyclo[20.5.2.11,4.13,7.025,28]hentriaconta-3,5,7(30),20,22(29),23,25(28)-heptaene-8,11,27-trione] showed a Kb of 0.794 nM.

In turn, `Cc1cc(C[C@H]2NC(=O)c3cc4c(cn3)C[C@@]3(C4)C(=O)Nc4ncc(cc43)/C=C/CN(C)CCCCCN(C)C2=O)cc2cn[nH]c12` [Example 2-3, (1R,10R,20E)-12,18-dimethyl-10-[(7-methyl-1H-indazol-5-yl)methyl]-6,9,12,18,24,26-hexazapentacyclo[20.5.2.11,4.13,7.025,28]hentriaconta-3,5,7(30),20,22(29),23,25(28)-heptaene-8,11,27-trione] had a Kb of 1.26 nM.

The molecule `Cc1cc(C[C@H]2NC(=O)c3cc4c(cn3)C[C@]3(C4)C(=O)Nc4ncc(cc43)/C=C/COCCOCCN(C)C2=O)cc2cnn(C)c12` [Example 2-4, (1S,10R,20E)-10-[(1,7-dimethylindazol-5-yl)methyl]-12-methyl-15,18-dioxa-6,9,12,24,26-pentazapentacyclo[20.5.2.11,4.13,7.025,28]hentriaconta-3,5,7(30),20,22(29),23,25(28)-heptaene-8,11,27-trione] showed a Kb of 25.1 nM.

As to `Cc1cc(C[C@H]2NC(=O)c3cc4c(cn3)C[C@@]3(C4)C(=O)Nc4ncc(cc43)/C=C/COCCOCCN(C)C2=O)cc2cnn(C)c12` [Example 2-5, (1R,10R,20E)-10-[(1,7-dimethylindazol-5-yl)methyl]-12-methyl-15,18-dioxa-6,9,12,24,26-pentazapentacyclo[20.5.2.11,4.13,7.025,28]hentriaconta-3,5,7(30),20,22(29),23,25(28)-heptaene-8,11,27-trione], the Kb was 0.501 nM.

With `Cc1cc(C[C@H]2NC(=O)c3cc4c(cn3)C[C@@]3(C4)C(=O)Nc4ncc(cc43)/C=C/COCCCCCN(C)C2=O)cc2cnn(C)c12` [Example 2-6, (1R,10R,20E)-10-[(1,7-dimethylindazol-5-yl)methyl]-12-methyl-18-oxa-6,9,12,24,26-pentazapentacyclo[20.5.2.11,4.13,7.025,28]hentriaconta-3,5,7(30),20,22(29),23,25(28)-heptaene-8,11,27-trione], the Kb is 0.794 nM.

Regarding `Cc1cc(C[C@H]2NC(=O)c3cc4c(cn3)C[C@@]3(C4)C(=O)Nc4ncc(cc43)/C=C/COCCCCN(C)C2=O)cc2cnn(C)c12` [Example 2-7, (1R,10R,19E)-10-[(1,7-dimethylindazol-5-yl)methyl]-12-methyl-17-oxa-6,9,12,23,25-pentazapentacyclo[19.5.2.11,4.13,7.024,27]triaconta-3,5,7(29),19,21(28),22,24(27)-heptaene-8,11,26-trione], the Kb was 1 nM.

Regarding `Cc1cc(C[C@H]2NC(=O)c3cc4c(cn3)C[C@@]3(C4)C(=O)Nc4ncc(cc43)/C=C/CN(C)CCCCCN(C)C2=O)cc2cnn(C)c12` [Example 2-8, (1R,10R,20E)-10-[(1,7-dimethylindazol-5-yl)methyl]-12,18-dimethyl-6,9,12,18,24,26-hexazapentacyclo[20.5.2.11,4.13,7.025,28]hentriaconta-3,5,7(30),20,22(29),23,25(28)-heptaene-8,11,27-trione], the Kb is 2 nM.

`Cc1cc(C[C@H]2NC(=O)c3cc4c(cn3)C[C@@]3(C4)C(=O)Nc4ncc(cc43)/C=C/COCCN(C)CCN(C)C2=O)cc2cnn(C)c12` [Example 2-9, (1R,10R,20E)-10-[(1,7-dimethylindazol-5-yl)methyl]-12,15-dimethyl-18-oxa-6,9,12,15,24,26-hexazapentacyclo[20.5.2.11,4.13,7.025,28]hentriaconta-3,5,7(30),20,22(29),23,25(28)-heptaene-8,11,27-trione]: the Kb is 1.26 nM.

Consider `Cc1cc(C[C@H]2NC(=O)c3ccc4c(c3)C[C@@]3(C4)C(=O)Nc4ncc(cc43)/C=C/COCCOCCN(C)C2=O)cc2cn[nH]c12` [Example 3-1, (1R,10R,20E)-12-methyl-10-[(7-methyl-1H-indazol-5-yl)methyl]-15,18-dioxa-9,12,24,26-tetrazapentacyclo[20.5.2.11,4.13,7.025,28]hentriaconta-3,5,7(30),20,22(29),23,25(28)-heptaene-8,11,27-trione], for which the Kb was 1.26 nM.

In turn, `Cc1cc(C[C@H]2NC(=O)c3ccc4c(c3)C[C@]3(C4)C(=O)Nc4ncc(cc43)/C=C/COCCOCCN(C)C2=O)cc2cn[nH]c12` [Example 3-2, (1S,10R,20E)-12-methyl-10-[(7-methyl-1H-indazol-5-yl)methyl]-15,18-dioxa-9,12,24,26-tetrazapentacyclo[20.5.2.11,4.13,7.025,28]hentriaconta-3,5,7(30),20,22(29),23,25(28)-heptaene-8,11,27-trione] gave a Kb of 0.631 nM.

`Cc1cc(C[C@H]2NC(=O)c3ccc4c(c3)C[C@]3(C4)C(=O)Nc4ncc(cc43)/C=C/COCCCN(C)C2=O)cc2cn[nH]c12` [Example 3-3, (1S,10R,18E)-12-methyl-10-[(7-methyl-1H-indazol-5-yl)methyl]-16-oxa-9,12,22,24-tetrazapentacyclo[18.5.2.11,4.13,7.023,26]nonacosa-3,5,7(28),18,20(27),21,23(26)-heptaene-8,11,25-trione] gave a Kb of 0.794 nM.

For the origin of these results see US12344621B2, “CGRP antagonist compounds” (Nxera Pharma UK Limited, priority 2019, dated 2025).
